We go through 26 compounds from patent US9056843B2, “Trifluoromethyl-oxadiazole derivatives and their use in the treatment of disease” (NOVARTIS AG, priority 2011, dated 2015).

Holding throughout (assay type): biochemical
The target in one assay is Human recombinant HDAC4 (Homo sapiens (Human), UniProt P56524). The experiment in a line: Test 2: HDAC4 assay (fluorogenic substrate, 5 μM acetyl-Gly-Ala-Lys(ε-trifluoroacetyl)-AMC). To be noted: Test 2 (values without asterisk). How it is done: Test 2: HDAC4 Assay Description
(§1) Control wells with HDAC4 only (positive control) and without HDAC4 (negative control) were included on the microplate. Bovine trypsin (4.5 μl of a 300 nM solution) was added and the plate incubated for additional 15 minutes at room temperature. The plate was placed in a fluorescence microplate reader, and read at an excitation wavelength of 360 nm and an emission wavelength of 450 nm with a 10 nm bandpath. Fluorescence values for all wells containing HDAC4 (positive control and wells with test compound) were corrected by subtracting negative control fluorescence values, and IC50 values were calculated by fitting the dose-response curves to a 4-parameter logistic function.

In assay [1] the target is Human recombinant full length HDAC1 (Homo sapiens (Human), UniProt Q13547). The experiment in a line: Test 3: HDAC1 assay. To be noted: substrate 5 μM acetyl-Gly-Ala-Lys(acetyl)-AMC. How it is done:
as §1
Test 3: HDAC1 Assay Description
A similar assay procedure as described in Test 2 was used for HDAC1. Human recombinant full length HDAC1 expressed in a baculovirus expression system was purchased from BPS BioSciences (San Diego, Calif., U.S.A.). The substrate used in the […] assay was 5 μM of acetyl-Gly-Ala-Lys(acetyl)-AMC.

Assay [2] deals with Human recombinant full length HDAC6 (Homo sapiens (Human), UniProt Q9UBN7). The experiment in a line: Test 4: HDAC6 assay. To be noted: Test 4; substrate 5 μM acetyl-Gly-Ala-Lys(acetyl)-AMC. The method, then:
as §1
Test 4: HDAC6 Assay Description
A similar assay procedure as described in Test 2 was used for HDAC6. Human recombinant full length HDAC6 expressed in a baculovirus expression system was purchased from BPS BioSciences (San Diego, Calif., U.S.A.). The substrate used in the […] assay was 5 μM of acetyl-Gly-Ala-Lys(acetyl)-AMC.

Molecules are shown by their SMILES. A value given as a limit tells only on which side of the number the result lay.

Human recombinant HDAC4, sequence (P56524 2-1084): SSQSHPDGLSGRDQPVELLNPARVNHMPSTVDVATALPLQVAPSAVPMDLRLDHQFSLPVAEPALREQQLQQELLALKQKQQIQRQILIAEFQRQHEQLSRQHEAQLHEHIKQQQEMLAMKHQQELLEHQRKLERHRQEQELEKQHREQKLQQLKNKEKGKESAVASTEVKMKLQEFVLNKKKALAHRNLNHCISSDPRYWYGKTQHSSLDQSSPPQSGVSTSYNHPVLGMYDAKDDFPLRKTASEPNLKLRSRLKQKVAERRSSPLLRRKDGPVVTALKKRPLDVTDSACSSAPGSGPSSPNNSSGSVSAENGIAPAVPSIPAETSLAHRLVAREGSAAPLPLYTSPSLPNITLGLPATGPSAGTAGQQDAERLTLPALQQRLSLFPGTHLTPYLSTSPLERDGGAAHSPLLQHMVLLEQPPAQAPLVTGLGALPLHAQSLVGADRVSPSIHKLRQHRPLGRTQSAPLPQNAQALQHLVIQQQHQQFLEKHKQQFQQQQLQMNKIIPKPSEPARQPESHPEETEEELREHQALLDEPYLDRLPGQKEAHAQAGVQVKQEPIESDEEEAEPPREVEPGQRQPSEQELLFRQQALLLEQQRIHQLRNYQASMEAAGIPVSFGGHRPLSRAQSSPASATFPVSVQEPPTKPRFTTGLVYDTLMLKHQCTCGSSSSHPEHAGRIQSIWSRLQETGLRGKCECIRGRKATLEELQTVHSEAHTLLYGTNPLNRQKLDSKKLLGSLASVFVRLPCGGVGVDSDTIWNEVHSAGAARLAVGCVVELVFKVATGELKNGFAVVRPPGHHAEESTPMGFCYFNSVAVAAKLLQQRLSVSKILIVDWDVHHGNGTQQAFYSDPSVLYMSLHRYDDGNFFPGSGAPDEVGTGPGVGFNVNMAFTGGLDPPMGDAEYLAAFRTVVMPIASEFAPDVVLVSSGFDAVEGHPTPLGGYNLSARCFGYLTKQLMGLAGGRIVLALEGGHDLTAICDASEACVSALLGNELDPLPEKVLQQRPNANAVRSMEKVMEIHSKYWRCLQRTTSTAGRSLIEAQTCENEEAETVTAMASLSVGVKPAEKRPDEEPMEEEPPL
Human recombinant full length HDAC1, sequence (Q13547 whole entry): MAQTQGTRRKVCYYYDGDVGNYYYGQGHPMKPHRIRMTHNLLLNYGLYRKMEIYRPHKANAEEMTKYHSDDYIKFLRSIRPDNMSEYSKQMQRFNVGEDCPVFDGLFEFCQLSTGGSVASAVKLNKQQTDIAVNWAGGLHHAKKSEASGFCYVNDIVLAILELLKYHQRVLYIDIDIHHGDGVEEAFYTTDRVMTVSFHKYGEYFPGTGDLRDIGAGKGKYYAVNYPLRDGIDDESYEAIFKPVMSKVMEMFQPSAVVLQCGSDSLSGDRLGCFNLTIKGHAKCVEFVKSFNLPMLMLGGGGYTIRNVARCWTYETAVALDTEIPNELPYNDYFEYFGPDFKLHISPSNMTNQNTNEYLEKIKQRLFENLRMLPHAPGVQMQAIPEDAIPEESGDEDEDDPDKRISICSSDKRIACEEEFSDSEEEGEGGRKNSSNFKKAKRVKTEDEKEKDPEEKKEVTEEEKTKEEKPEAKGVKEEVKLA
Human recombinant full length HDAC6, sequence (Q9UBN7 whole entry): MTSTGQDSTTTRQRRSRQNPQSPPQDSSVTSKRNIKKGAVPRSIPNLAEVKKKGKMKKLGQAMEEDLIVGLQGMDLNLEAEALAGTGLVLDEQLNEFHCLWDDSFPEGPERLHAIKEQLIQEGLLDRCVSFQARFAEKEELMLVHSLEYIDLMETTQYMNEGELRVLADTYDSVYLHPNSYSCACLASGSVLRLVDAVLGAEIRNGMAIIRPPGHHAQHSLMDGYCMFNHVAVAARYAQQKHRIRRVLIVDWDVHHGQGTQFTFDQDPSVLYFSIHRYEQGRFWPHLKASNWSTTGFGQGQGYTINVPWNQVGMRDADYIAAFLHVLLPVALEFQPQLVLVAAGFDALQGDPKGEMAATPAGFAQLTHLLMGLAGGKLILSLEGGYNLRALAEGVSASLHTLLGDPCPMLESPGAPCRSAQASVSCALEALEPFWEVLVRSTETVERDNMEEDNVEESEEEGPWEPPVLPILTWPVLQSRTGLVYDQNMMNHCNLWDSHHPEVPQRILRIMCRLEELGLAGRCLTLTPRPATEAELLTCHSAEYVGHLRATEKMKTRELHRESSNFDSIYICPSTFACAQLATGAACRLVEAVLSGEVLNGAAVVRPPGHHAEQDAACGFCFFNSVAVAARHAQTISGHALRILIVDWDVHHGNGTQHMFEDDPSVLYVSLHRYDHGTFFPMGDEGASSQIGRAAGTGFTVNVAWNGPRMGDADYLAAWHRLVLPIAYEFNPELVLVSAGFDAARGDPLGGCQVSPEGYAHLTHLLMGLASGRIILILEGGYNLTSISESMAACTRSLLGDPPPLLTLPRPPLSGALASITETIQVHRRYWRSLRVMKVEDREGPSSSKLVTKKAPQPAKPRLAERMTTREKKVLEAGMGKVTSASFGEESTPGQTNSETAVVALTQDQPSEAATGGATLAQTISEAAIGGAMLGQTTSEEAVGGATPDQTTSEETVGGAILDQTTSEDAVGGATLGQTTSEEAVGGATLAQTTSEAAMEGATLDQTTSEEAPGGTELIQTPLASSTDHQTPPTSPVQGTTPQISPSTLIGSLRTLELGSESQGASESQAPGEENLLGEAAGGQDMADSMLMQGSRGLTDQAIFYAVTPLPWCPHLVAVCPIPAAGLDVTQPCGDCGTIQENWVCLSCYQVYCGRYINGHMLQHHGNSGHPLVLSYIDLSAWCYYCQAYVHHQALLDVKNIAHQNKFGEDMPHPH

As usually defined, the IC50 is the concentration at which inhibition is half-maximal. Turning to `CCCCN(C)C[C@@H](C)NC(=O)c1ccc(-c2noc(C(F)(F)F)n2)cc1F` [Example 151, (R)—N-(1-(butyl(methyl)amino)propan-2-yl)-2-fluoro-4-(5-(trifluoromethyl)-1,2,4-oxadiazol-3-yl)benzamide], the IC50 worked out at 0.0018 µM at Human recombinant HDAC4, 2.7 µM in assay [1] and 2.6 µM in assay [2].

With `CCCCN(C)C[C@@H](C)NC(=O)c1ccc(-c2noc(C(F)(F)F)n2)cc1` [Example 150, (R)—N-(1-(butyl(methyl)amino)propan-2-yl)-4-(5-(trifluoromethyl)-1,2,4-oxadiazol-3-yl)benzamide], the figures for the IC50 (on Human recombinant HDAC4; in assay [1]; in assay [2]) were 0.0011 µM, 1.2 µM and 3.1 µM, respectively.

`CN(C)CCNS(=O)(=O)c1ccc(-c2noc(C(F)(F)F)n2)cc1` [Example 98, N-(2-(dimethylamino)ethyl)-4-(5-(trifluoromethyl)-1,2,4-oxadiazol-3-yl)benzenesulfonamide]: the IC50 was 0.36 µM at Human recombinant HDAC4, over 10 µM in assay [1] and 6.4 µM in assay [2].

Turning to `CC(C)C[C@H](CN(C)C)NC(=O)c1ccc(-c2noc(C(F)(F)F)n2)cc1` [Example 85, (R)—N-(1-(dimethylamino)-4-methylpentan-2-yl)-4-(5-(trifluoromethyl)-1,2,4-oxadiazol-3-yl)benzamide], the figures for the IC50 (at Human recombinant HDAC4; in assay [1]; in assay [2]) were 0.048 µM, over 10 µM and over 10 µM, respectively.

As to `COc1cc(NC(=O)c2ccc(-c3noc(C(F)(F)F)n3)cc2)ccn1` [Example 67, N-(2-methoxypyridin-4-yl)-4-(5-(trifluoromethyl)-1,2,4-oxadiazol-3-yl)benzamide], the IC50 at Human recombinant HDAC4 was 0.16 µM; in assay [1] it was over 10 µM; in assay [2] it was 8.3 µM.

For the compound `Cc1cccc(NS(=O)(=O)c2ccc(-c3noc(C(F)(F)F)n3)cc2)c1` [Example 105, N-m-tolyl-4-(5-(trifluoromethyl)-1,2,4-oxadiazol-3-yl)benzenesulfonamide], the results for the IC50 (at Human recombinant HDAC4; in assay [1]; in assay [2]) were 0.27 µM, 3.6 µM and 0.47 µM, respectively.

Regarding `CC(CN(C)C)N(C)C(=O)c1ccc(-c2noc(C(F)(F)F)n2)cc1` (stereo not drawn) [Example 94, N-(1-(dimethylamino)propan-2-yl)-N-methyl-4-(5-(trifluoromethyl)-1,2,4-oxadiazol-3-yl)benzamide], the IC50 was 0.52 µM on Human recombinant HDAC4, over 10 µM in assay [1] and over 10 µM in assay [2].

`O=C(NCCc1ccccc1)c1ccc(-c2noc(C(F)(F)F)n2)cc1` [Example 45, N-phenethyl-4-(5-(trifluoromethyl)-1,2,4-oxadiazol-3-yl)benzamide]: the results for the IC50 (at Human recombinant HDAC4; in assay [1]; in assay [2]) were 4.2 µM, over 10 µM and over 10 µM, respectively.

With `CN1CC[C@@H](NC(=O)c2ccc(-c3noc(C(F)(F)F)n3)cc2)C1` [Example 153, (R)—N-(1-methylpyrrolidin-3-yl)-4-(5-(trifluoromethyl)-1,2,4-oxadiazol-3-yl)benzamide], the IC50 was 0.0036 µM on Human recombinant HDAC4, 1.8 µM in assay [1] and 3 µM in assay [2].

Regarding `O=C(c1ccc(-c2noc(C(F)(F)F)n2)cc1)N1CCC(O)C1` (stereo not drawn) [Example 54, (3-hydroxypyrrolidin-1-yl)(4-(5-(trifluoromethyl)-1,2,4-oxadiazol-3-yl)phenvyl)methanone], the figures for the IC50 (on Human recombinant HDAC4; in assay [1]; in assay [2]) were 2 µM, over 10 µM and over 10 µM, respectively.

In the case of `CC(C)(C)OC(=O)NC1CCCCC1NC(=O)c1ccc(-c2noc(C(F)(F)F)n2)cc1` (stereo not drawn) [Example 60, tert-butyl (2-(4-(5-(trifluoromethyl)-1,2,4-oxadiazol-3-yl)benzamido)cyclohexyl)carbamate], the IC50 is 2.5 µM at Human recombinant HDAC4, over 10 µM in assay [1] and 2.2 µM in assay [2].

Take `C[C@H](CN(C)C)NC(=O)c1ccc(-c2noc(C(F)(F)F)n2)cc1` [Example 81, (R)—N-(1-(dimethylamino)propan-2-yl)-4-(5-(trifluoromethyl)-1,2,4-oxadiazol-3-yl)benzamide]: the IC50 on Human recombinant HDAC4 is 0.034 µM; in assay [1], over 10 µM; in assay [2], over 10 µM.

Take `O=S(=O)(Nc1ccccc1F)c1ccc(-c2noc(C(F)(F)F)n2)cc1` [Example 111, N-(2-fluorophenyl)-4-(5-(trifluoromethyl)-1,2,4-oxadiazol-3-yl)benzenesulfonamide]: the results for the IC50 (at Human recombinant HDAC4; in assay [1]; in assay [2]) were 0.29 µM, over 10 µM and 0.58 µM, respectively.

On to `CC(C)(C)OC(=O)N1CCC(NC(=O)c2ccc(-c3noc(C(F)(F)F)n3)cc2)C1` (stereo not drawn) [Example 66, Tert-butyl 3-(4-(5-(trifluoromethyl)-1,2,4-oxadiazol-3-yl)benzamido)pyrrolidine-1-carboxylate], for which the IC50 was 0.33 µM at Human recombinant HDAC4, over 10 µM in assay [1] and 5.8 µM in assay [2].

For `CC(=O)N1CCC(NC(=O)c2ccc(-c3noc(C(F)(F)F)n3)cc2)CC1` [Example 64, N-(1-acetylpiperidin-4-yl)-4-(5-(trifluoromethyl)-1,2,4-oxadiazol-3-yl)benzamide], the IC50 is 0.51 µM at Human recombinant HDAC4, over 10 µM in assay [1] and over 10 µM in assay [2].

For `O=C(Nc1ccncc1)c1ccc(-c2noc(C(F)(F)F)n2)cc1` [Example 47, N-(ppyridin-4-yl)-4-(5-(trifluoromethyl)-1,2,4-oxadiazol-3-yl)benzamide], the IC50 was 0.054 µM at Human recombinant HDAC4, over 10 µM in assay [1] and 2.1 µM in assay [2].

Take `C[C@H](CN1CCOCC1)NC(=O)c1ccc(-c2noc(C(F)(F)F)n2)cc1F` [Example 148, (R)-2-fluoro-N-(1-morpholinopropan-2-yl)-4-(5-(trifluoromethyl)-1,2,4-oxadiazol-3-yl)benzamide]: the IC50 at Human recombinant HDAC4 is 0.38 µM; in assay [1] it was over 10 µM; in assay [2] it was 3.2 µM.

`O=C(NCCNc1ccccc1)c1ccc(-c2noc(C(F)(F)F)n2)cc1` [Example 158, N-(2-(phenylamino)ethyl)-4-(5-(trifluoromethyl)-1,2,4-oxadiazol-3-yl)benzamide]: the results for the IC50 (at Human recombinant HDAC4; in assay [1]; in assay [2]) were 0.36 µM, 8.8 µM and 1.8 µM, respectively.

Take `O=C(N[C@@H]1CCNC1)c1ccc(-c2noc(C(F)(F)F)n2)cc1F` [Example 95, (R)-2-fluoro-N-(pyyrrolidin-3-yl)-4-(5-(trifluoromethyl)-1,2,4-oxadiazol-3-yl)benzamide]: the IC50 was 0.16 µM on Human recombinant HDAC4, over 10 µM in assay [1] and 6.9 µM in assay [2].

Regarding `CNC(=O)CNC(=O)c1ccc(-c2noc(C(F)(F)F)n2)cc1` [Example 63, N-(2-(methylamino)-2-oxoethyl)-4-(5-(trifluoromethyl)-1,2,4-oxadiazol-3-yl)benzamide], the IC50 on Human recombinant HDAC4 was 0.78 µM; in assay [1], over 10 µM; in assay [2], over 10 µM.

On to `CN(C)CCNC(=O)c1ccc(-c2noc(C(F)(F)F)n2)cc1` [Example 31, N-(2-(dimethylamino)ethyl)-4-(5-(trifluoromethyl)-1,2,4-oxadiazol-3-yl)benzamide], for which the IC50 is 0.08 µM on Human recombinant HDAC4, 7.6 µM in assay [1] and 7.05 µM in assay [2].

Consider `C[C@H](CN1CCCC1)NC(=O)c1ccc(-c2noc(C(F)(F)F)n2)cc1` [Example 130, (R)—N-(1-(pyrrolidin-1-yl)propan-2-yl)-4-(5-(trifluoromethyl)-1,2,4-oxadiazol-3-yl)benzamide], for which the IC50 on Human recombinant HDAC4 was 0.011 µM; in assay [1], over 10 µM; in assay [2] it was 9.1 µM.

Consider `C[C@H](CN1CCCCC1)NC(=O)c1ccc(-c2noc(C(F)(F)F)n2)cc1F` [Example 129, (R)-2-fluoro-N-(1-(piperidin-1-yl)propan-2-yl)-4-(5-(trifluoromethyl)-1,2,4-oxadiazol-3-yl)benzamide], for which the IC50 on Human recombinant HDAC4 was determined as 0.013 µM; in assay [1], 9.05 µM; in assay [2], 3 µM.

Consider `C[C@H](CN1CCCC1)NC(=O)c1ccc(-c2noc(C(F)(F)F)n2)cc1F` [Example 128, (R)-2-fluoro-N-(1-(pyrrolidin-1-yl)propan-2-yl)-4-(5-(trifluoromethyl)-1,2,4-oxadiazol-3-yl)benzamide], for which the values for the IC50 (at Human recombinant HDAC4; in assay [1]; in assay [2]) were 0.026 µM, over 10 µM and 4.5 µM, respectively.

For `CCOC(=O)CNC(=O)Cc1ccc(-c2noc(C(F)(F)F)n2)cc1` [Example 8, Ethyl 2-(2-(4-(5-(trifluoromethyl)-1,2,4-oxadiazol-3-yl)phenyl)acetamido)acetate], the figures for the IC50 (at Human recombinant HDAC4; in assay [1]; in assay [2]) were 0.58 µM, over 10 µM and 7.6 µM, respectively.

For the compound `O=C(Nc1ccnc(F)c1)c1ccc(-c2noc(C(F)(F)F)n2)cc1` [Example 71, N-(2-fluoropyridin-4-yl)-4-(5-(trifluoromethyl)-1,2,4-oxadiazol-3-yl)benzamide], the results for the IC50 (at Human recombinant HDAC4; in assay [1]; in assay [2]) were 0.92 µM, over 10 µM and over 10 µM, respectively.
